# Measured values reported in patent US6376501B1, “Type 2 helper T cell-selective immune response suppressors” (Japan Energy Corporation, priority 2000, dated 2002).
# Assays:
# interleukin-5 (IL-5) = assay: IL-5 production from OVA-sensitized mouse spleen cells induced by antigen stimulation (ELISA); format: cell-based; conditions: OVA-stimulated sensitized spleen cells, 3 days culture supernatant
# Experimental: (§1) 1) Preparation of Sensitized Mouse Spleen Cells
# (§2) Seven week-old male BALB/c mice were immunized with 4 mg of aluminium hydroxide gel (100 μl) adsorbing 10 μg of ovalbumin (OVA) by intraperitoneal administration. After 14 days, the mice received a booster injection of the same composition. Seven days after the booster administration, the spleen was removed and suspended in RPMI-1640 medium containing inactivated bovine fetal serum (10% v/v), 2-mercaptoethanol (50 μM), penicillin G (100 U/ml) and streptomycin (100 μg/ml) to prepare a cell suspension.
# (§3) 2) Cytokine Production Induced by Antigen Stimulation
# (§4) To the spleen cell suspension (5×10^6 cells/200 μl/well), 1/1000 volume of dimethyl sulfoxide solution dissolving OVA (0.5 mg/ml) and a test compound at a specific concentration was added. Then, the cells were cultured at 37° C. under 5% CO2. After 3 days, cytokines in the culture supernatant were determined by ELISA. Specifically, as a Th1 type cytokine, interferon-γ, (IFN-γ) was determined using Mouse IFN-γ ELISA Kit (Amersham). As Th2 type cytokines, interleukin-4 (IL-4) and interleukin-5 (IL-5) were determined with Mouse IL-4 ELISA Kit (Amersham) and Mouse IL-5 ELISA minikit (Endogen), respectively.
# interferon-γ (IFN-γ) = assay: IFN-γ production from OVA-sensitized mouse spleen cells induced by antigen stimulation (ELISA); format: cell-based; conditions: OVA-stimulated sensitized spleen cells, 3 days culture supernatant
# Experimental: as §1, §2, §3, §4
# interleukin-4 (IL-4) = assay: IL-4 production from OVA-sensitized mouse spleen cells induced by antigen stimulation (ELISA); format: cell-based; conditions: OVA-stimulated sensitized spleen cells, 3 days culture supernatant
# Experimental: as §1, §2, §3, §4
# BALB/c mice [1] = assay: Inhibitory effect on eosinophilic infiltration into the abdominal cavity of OVA-immunized mice; format: in vivo; conditions: for Ratio of Infiltrating Eosinophiles: cells collected two days after; for Inhibition: eosinophile ratio vs control
# Experimental: Eight week-old male BALB/c mice were immunized with 1.6 mg of aluminium hydroxide gel (200 μl) adsorbing 100 μg of OVA by subcutaneous administration in the back. After 7 days, the mice received a booster injection of the same composition. Seven days after the booster administration, 10 μg of OVA in 200 μl of physiological saline was administered to the mice intraperitoneally. Two days after the intraperitoneal administration, abdominal cavity-infiltrating cells were collected with physiological saline. The total cell count and the eosinophile count in the collected cells were calculated by staining with Türk's solution and Hinkerman's solution, respectively. The test compound was administered orally 2 hours before the OVA intraperitoneal administration.
# BALB/c mice [2] = assay: Mouse FITC-induced contact dermatitis model (auricule swelling), ointment; format: in vivo; conditions: 10 μl on left auricule 2 hr before induction, 24 hr after induction
# Experimental: As a control, Imiquimode (R-837; 4-amino-1-isobutyl-1H-imidazo[4,5-c]quinoline) disclosed in EP 145,340 A was used for comparison. Further, a steroid-type drug Rinderon™ ointment (Shionogi & Co.; 0.12% betamethasone valerate ointment) was used for reference.
# The test compound was dissolved in an ointment base (PEG400:PEG4000=7:3) heated to about 80° C. to give a concentration of 1 mg/ml or 10 mg/ml, and then cooled to solid at room temperature to thereby prepare 0.1 or 1% macrogol ointment. Imiquimode (R-837), the control, was also formulated into 0.1 and 1% macrogol ointments.
# Seven week-old male BALB/c mice were sensitized by applying 0.2 ml of 0.5% FITC in acetone/dibutyl phthalate (1:1) to the abdomen sheared in advance. Seven days after the sensitization, inflammation was induced by applying 10 μl of 0.5% FITC in acetone/dibutyl phthalate (1:1) to each side of the left auricule (total 20 μl). Before the induction and 24 hr after the induction, the thickness of the auricule was measured with a micrometer. The difference between the two values was taken as the swelling degree. The macrogoal ointment containing the test compound and Rinderon™ ointment (0.12% betamethasonevalerate) were applied to each side of the left auricule in an amount of 5 μl (total 10 μl) 2 hr before the induction. Mice in the placebo group were treated with the macrogol ointment base (PEG400:PEG4000=7:3).
# The inflammation inhibitory effect of the ointment of the invention was calculated as an inhibition ratio relative to the swelling degree in the placebo group which was taken as 100%. For example, the inhibition ratios in the groups treated with ointments containing 0.1% and 1% of the compound of Example 59, i.e. 2-butyl-9-(p-fluorobenzyl)-8-hydroxyadenine were 67% and 33%, respectively.
# [3] = 30 mg/kg orally 2 hours before OVA i.p.
# [4] = 3 mg/kg orally 2 hours before OVA i.p.
melting point,Structure (SMILES),IL-5 (interleukin-5 (IL-5); test compound 0.1 μM),IL-5 (interleukin-5 (IL-5); test compound 1 μM),IL-5 (interleukin-5 (IL-5); test compound 10 μM),IFN-γ (interferon-γ (IFN-γ); test compound 0.1 μM),IFN-γ (interferon-γ (IFN-γ); test compound 1 μM),IFN-γ (interferon-γ (IFN-γ); test compound 10 μM),IL-4 (interleukin-4 (IL-4); test compound 0.1 μM),IL-4 (interleukin-4 (IL-4); test compound 1 μM),IL-4 (interleukin-4 (IL-4); test compound 10 μM),further results
,"CC(C)c1nc(N)c2nc(O)n(Cc3ccccc3)c2n1 [Example 45, 9-Benzyl-8-Hydroxy-2-Isopropyladenine]","2,881 pg/ml",699 pg/mL,563 pg/mL,46 ng/mL,161 ng/mL,187 ng/mL,86 pg/mL,<7.8 pg/mL,<7.8 pg/mL,
,"Nc1nc(Cc2ccccc2)nc2c1nc(O)n2Cc1ccccc1 [Example 24, 2,9-Dibenzyl-8-Hydroxyadenine]","3,670 pg/ml","1,130 pg/ml",345 pg/mL,44 ng/mL,199 ng/mL,244 ng/mL,195 pg/mL,<7.8 pg/mL,<7.8 pg/mL,
287 to 289 °C,"CC(C)(C)OC(=O)Oc1nc2c(N)ncnc2n1Cc1ccccc1 [Example 10, 9-Benzyl-8-tert-Butyloxycarbonyloxyadenine]",,,,,,,,,,
,"CCCCCc1nc(N)c2nc(O)n(Cc3ccccc3)c2n1 [Example 20, 9-Benzyl-8-Hydroxy-2-Pentyladenine]","1,667 pg/ml",670 pg/mL,524 pg/mL,135 ng/mL,193 ng/mL,219 ng/mL,20 pg/mL,<7.8 pg/mL,<7.8 pg/mL,"IL-5 (interleukin-5 (IL-5); test compound 0.01 μM): 3,792 pg/ml; Ratio of Infiltrating Eosinophiles (BALB/c mice [1]; [3]): 6.94%; Inhibition (BALB/c mice [1]; [3]): 46.2%; IFN-γ (interferon-γ (IFN-γ); test compound 0.01 μM): 25 ng/mL; IL-4 (interleukin-4 (IL-4); test compound 0.01 μM): 208 pg/mL"
,"Nc1nc(C2CCCCC2)nc2c1nc(O)n2Cc1ccccc1 [Example 21, 9-Benzyl-2-Cyclohexyl-8-Hydroxyadenine]","4,103 pg/ml","1,291 pg/ml",715 pg/mL,28 ng/mL,158 ng/mL,170 ng/mL,192 pg/mL,11 pg/mL,<7.8 pg/mL,
222 to 224 °C,"CCCCn1c(O)nc2c(N)ncnc21 [Example 3, 9-Butyl-8-Hydroxyadenine]",,,,,,,,,,
,"CCCCc1nc(N)c2nc(O)n(Cc3ccc(F)cc3)c2n1 [Example 59, 2-Butyl-9-(p-Fluorobenzyl)-8-Hydroxyadenine]",,,,,,,,,,inhibition ratio relative to the swelling degree in the placebo group (BALB/c mice [2]; 0.1% macrogol ointment): 67%; inhibition ratio relative to the swelling degree in the placebo group (BALB/c mice [2]; 1% macrogol ointment): 33%
248 to 250 °C,"CCCCCCCC(=O)Oc1nc2c(N)ncnc2n1Cc1ccccc1 [Example 15, 9-Benzyl-8-Octanoyloxyadenine]",,,,,,,,,,
278 to 280 °C,"Nc1ncnc2c1nc(O)n2Cc1ccccc1 [Example 1, 9-Benzyl-8-Hydroxyadenine]",,,,,,,,,,
,"Cc1nc(N)c2nc(S)n(Cc3ccccc3)c2n1 [Example 19, 9-Benzyl-8-Mercapto-2-Methyladenine]","4,482 pg/ml","1,782 pg/ml",643 pg/mL,16 ng/mL,50 ng/mL,139 ng/mL,296 pg/mL,29 pg/mL,<7.8 pg/mL,
,"C[C@@H]1C[C@H]2[C@@H]3CCC4=CC(=O)C=C[C@]4(C)[C@@]3(F)[C@@H](O)C[C@]2(C)[C@@]1(O)C(=O)CO [Dexamethasone, reference compound]",,,,,,,,,,Ratio of Infiltrating Eosinophiles (BALB/c mice [1]; [4]): 10.27%; Inhibition (BALB/c mice [1]; [4]): 18.9%
,"CC(C)Cn1cnc2c(N)nc3ccccc3c21 [Example R-837, 4-amino-1-isobutyl-1H-imidazo[4,5-c]quinoline, reference compound]",,,,,,,,,,inhibition ratio relative to the swelling degree in the placebo group (BALB/c mice [2]; 0.1% macrogol ointment): 50%; inhibition ratio relative to the swelling degree in the placebo group (BALB/c mice [2]; 1% macrogol ointment): 67%
227 to 229 °C,"Nc1ncnc2c1nc(OC(=O)c1ccccc1)n2Cc1ccccc1 [Example 12, 9-Benzyl-8-Benzoyloxyadenine]",,,,,,,,,,
,"Cc1nc(N)c2nc(O)n(Cc3cccc(Cl)c3)c2n1 [Example 18, 9-(m-Chlorobenzyl)-8-Hydroxy-2-Methyladenine]","4,150 pg/ml","2,321 pg/ml",710 pg/mL,26 ng/mL,63 ng/mL,181 ng/mL,254 pg/mL,<7.8 pg/mL,<7.8 pg/mL,
270 to 272 °C,"Nc1ncnc2c1nc(O)n2Cc1ccc(F)cc1 [Example 4, 9-(4-Fluorobenzyl)-8-Hydroxyadenine]",,,,,,,,,,
,"Cc1nc(N)c2nc(O)n(Cc3ccccc3)c2n1 [Example 17, 9-Benzyl-8-Hydroxy-2-Methyladenine]",,,,,,,,,,Ratio of Infiltrating Eosinophiles (BALB/c mice [1]; [3]): 4.70%; Inhibition (BALB/c mice [1]; [3]): 62.9%

Structure (SMILES),melting point,IL-5 (interleukin-5 (IL-5); test compound 0.1 μM),IL-5 (interleukin-5 (IL-5); test compound 1 μM),IL-5 (interleukin-5 (IL-5); test compound 10 μM),IFN-γ (interferon-γ (IFN-γ); test compound 0.1 μM),IFN-γ (interferon-γ (IFN-γ); test compound 1 μM),IFN-γ (interferon-γ (IFN-γ); test compound 10 μM),IL-4 (interleukin-4 (IL-4); test compound 0.1 μM),IL-4 (interleukin-4 (IL-4); test compound 1 μM),IL-4 (interleukin-4 (IL-4); test compound 10 μM),further results
"CC(=O)Oc1nc2c(N)ncnc2n1Cc1ccccc1 [Example 11, 9-Benzyl-8-Acetoxyadenine]",189 to 191 °C,,,,,,,,,,
